Assay results reported in article PMC6332448, “SAR Studies Leading to the Identification of a Novel Series of Metallo-β-lactamase Inhibitors for the Treatment of Carbapenem-Resistant Enterobacteriaceae Infections That Display Efficacy in an Animal Infection Model” (ACS Infectious Diseases, 2018).
In brackets after ≈: the same amount, converted by molar mass. Several values for one entry are separate records, joined by “and”; a condition that tells them apart may be missing. Equal entries are not always repeated. Where two headings read alike, the source gives them in different places.

Key:
VIM-1 = VIM-1 (Pseudomonas aeruginosa, UniProt A0A0F7KYQ8); assay: biochemical; assay type: biochemical; settings: for inhibition of VIM-1, in words: tested up to 200 μM
[1] = tested on: IMP-1-producing strain K. pneumoniae NTBC062; assay: Whole-cell meropenem potentiation, CLSI broth microdilution MIC; assay type: cell-based, Klebsiella pneumoniae; settings: inhibitor present at 100 μM; K. pneumoniae NTBC062 (IMP-1); meropenem alone 4 μg/mL
Experimental: (§1) Minimal inhibitory concentrations (MIC) were determined using the Clinical Laboratory Standards Institute (CLSI) broth microdilution procedure. MBL-positive Enterobacteriaceae clinical isolates tested in the susceptibility study included NDM-1-producing strain E. coli NTBC121, VIM-1-producing strain K. pneumoniae NTBC055, and IMP-1-producing strain K. pneumoniae NTBC062. (Individual MICs for all strains tested are presented in Table 2 and Table 1 in the Supporting Information).

NDM-1 = NDM-1 (Klebsiella pneumoniae, UniProt C7C422); assay: biochemical; assay type: biochemical; settings: for IC50: 10 mM HEPES pH 7.5, 25 °C, average of at least two independent assays; for inhibition of NDM-1, in words: tested up to 200 μM
Sequence of NDM-1 (C7C422 29-270, looked up, species assumed): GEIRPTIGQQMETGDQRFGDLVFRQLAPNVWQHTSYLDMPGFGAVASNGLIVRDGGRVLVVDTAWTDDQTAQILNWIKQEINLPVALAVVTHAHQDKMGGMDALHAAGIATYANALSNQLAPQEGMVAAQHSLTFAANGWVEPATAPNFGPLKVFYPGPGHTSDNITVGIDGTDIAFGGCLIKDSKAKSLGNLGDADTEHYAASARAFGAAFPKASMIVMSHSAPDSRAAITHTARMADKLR

IMP-1 = IMP-1 (Serratia marcescens, UniProt P52699); assay: biochemical; assay type: biochemical; settings: for inhibition of IMP-1, in words: tested up to 200 μM
Sequence of IMP-1 (P52699 19-246, looked up, species assumed): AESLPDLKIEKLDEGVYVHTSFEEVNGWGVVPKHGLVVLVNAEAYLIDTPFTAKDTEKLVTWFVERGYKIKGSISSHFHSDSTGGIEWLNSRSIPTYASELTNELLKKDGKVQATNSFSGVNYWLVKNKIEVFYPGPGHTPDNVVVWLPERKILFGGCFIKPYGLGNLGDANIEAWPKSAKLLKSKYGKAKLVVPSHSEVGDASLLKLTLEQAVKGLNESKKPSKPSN

[2] = tested on: NDM-1-producing strain Escherichia coli NTBC121; assay: Whole-cell meropenem potentiation, CLSI broth microdilution MIC; assay type: cell-based; settings: for MICMEM (meropenem MIC in presence of inhibitor) vs NTBC121: inhibitor present at 100 μM, E. coli NTBC121 (NDM-1), meropenem alone 32 μg/mL; for potentiation efficiency (PE = MIC/IC50): potentiated meropenem MIC vs E. coli NTBC121 divided by NDM-1 IC50
Experimental: as §1

[3] = tested on: VIM-1-producing strain Klebsiella pneumoniae NTBC055; assay: as above; assay type: cell-based; settings: inhibitor present at 100 μM; K. pneumoniae NTBC055 (VIM-1); meropenem alone 16 μg/mL
Experimental: as §1

VIM-2 [4] = target: T1, VIM-2 (Escherichia coli, UniProt Q5U7L7); assay: biochemical
[5] = Kinetic solubility in PBS pH 7.4; assay type: physicochemical; settings: for solubility at 4 h: phosphate-buffered saline, pH 7.4, aqueous buffer, thermodynamic from solid
Experimental: This was determined by vigorous stirring (1200 rpm) of a 20 mg/mL mixture of the test compound in phosphate-buffered saline (PBS) at pH 7.4 for 4 h. The mixture was then centrifuged for 20 min at 10 000 rpm and the supernatant further processed by filtration. The concentration of the test compound in the filtrate was then determined by high-performance liquid chromatography (UV analysis) by comparison to a standard calibration curve of the test compound.

E. coli (IR3) = tested on: E. coli (IR3); parameters: method as in PMID 29530861; settings: E. coli (IR3) murine thigh infection model, in combination with meropenem; cited from earlier work
[6] = tested on: NDM- and VIM-producing clinical strains; parameters: method as in PMID 29530861; settings: cited from earlier work
VIM-2 [7] = target: T1, VIM-2; settings: tested up to 200 μM
[8] = target: Aeromonas hydrophila CphA MBL; parameters: method as in PMID 17307979; settings: read-out: Ki [inhibition constant] CphA; cited from earlier work
[9] = tested on: NDM-1-producing Escherichia coli (DH5α/pLBII-NDM-1); assay: Imipenem MIC on laboratory strain; assay type: cell-based; settings: tested at concentrations up to 1 mM; data not shown
[10] = acid form, read-out: solubility
[11] = sodium salt, read-out: solubility (Na salt)
[12] = 300 μM imipenem, 10 mM HEPES pH 7.5, 25 °C, average of at least two independent assays, read-out: VIM-1 IC50
[13] = 300 μM imipenem, read-out: NDM-1 IC50
[14] = 300 μM imipenem, 10 mM HEPES pH 7.5, 25 °C, average of at least two independent assays, read-out: IMP-1 IC50

Row | SMILES | IC50 (VIM-1) [µM] | MICMEM (meropenem MIC in presence of inhibitor) vs NTBC062 [1] [µg/mL] | IC50 (NDM-1; NDM-1 IC50, 300 μM imipenem) | IC50 (IMP-1) [µM] | MICMEM (meropenem MIC in presence of inhibitor) vs NTBC121 [2] [µg/mL] | MICMEM (meropenem MIC in presence of inhibitor) vs NTBC055 [3] [µg/mL] | IC50 (VIM-2 [4]) [µM] | further results
1 | N#Cc1cccc(CS(=O)(=O)Nc2cccnc2C(=O)O)c1 [Compound 65] | > 200 | 1 | 116 µM | 150 | 32 | 2 | – | –
2 | O=C(O)c1ncsc1NS(=O)(=O)c1ccccc1 [Compound 62] | > 200 | 1 | 4.5 µM | 58.2 | 0.125 | 0.5 | 6.2 | solubility at 4 h [5, 10]: 1.1 mg/mL (≈ 3.87 mM); solubility at 4 h [5, 11]: 18.9 mg/mL; improvement in potentiation over that expected from enzyme inhibition alone ([2]; 62 (thiazolyl) versus 61 (pyridyl), from PE values): 10 fold; potentiation efficiency (PE = MIC/IC50) [2]: 0.027
3 | O=C(O)c1ncsc1NS(=O)(=O)Cc1ccccc1Cl [Compound 68] | 6.72 | 0.5 | 2.32 µM | 1.75 | 0.5 | 0.25 | – | –
4 | O=C(O)c1ncsc1NS(=O)(=O)c1cccnc1 [Compound 76, 5-(Pyridine-3-sulfonamido)-1,3-thiazole-4-carboxylic acid] | – | – | 2.67 µM | 54 | 0.06 | – | – | solubility at 4 h [5, 10]: 2.4 mg/mL (≈ 8.41 mM); solubility at 4 h [5, 11]: ~20 mg/mL; solubility (Na salt) ([5]; sodium salt): 16.9 mg/mL; efficacy with meropenem in thigh infection model, in words (E. coli (IR3)): restore the efficacy of meropenem; effective inhibitor concentration for potentiation of meropenem ([6]; listed as ANT431): 28 μM and 8 μg/mL; potentiation of meropenem activity, in words ([6]; panel of 94 randomly selected NDM- and VIM-producing clinical strains): potentiate meropenem activity
5 | O=C(O)c1ncccc1NS(=O)(=O)Cc1ccccc1Cl [Compound 39] | – | 1 | – | – | 16 | 0.5 | – | IC50 (VIM-1; [12]): 10.9 µM; IC50 (NDM-1; [13]): 32.6 µM; IC50 (IMP-1; [14]): 20.9 µM
6 | O=C(O)c1ncccc1NS(=O)(=O)Cc1ccccc1 [Compound 63] | > 100 | 1 | > 100 µM | > 100 | 16 | 1 | – | –
7 | O=C(O)c1ncsc1NS(=O)(=O)Cc1ccc(Cl)c(Cl)c1 [Compound 70] | 37.9 | 1 | 7.88 µM | 3.55 | 2 | 1 | – | –
8 | O=C(O)c1ncsc1NS(=O)(=O)Cc1ccc(Cl)cc1Cl [Compound 72] | 7 | 0.5 | 2.1 µM | 0.5 | 0.5 | 0.5 | – | –
9 | O=C(O)c1ncccc1NS(=O)(=O)c1ccccc1 [Compound 61] | – | 4 | – | – | 16 | 4 | – | IC50 (VIM-1; read-out: VIM-1 IC50, 300 μM imipenem, 10 mM HEPES pH 7.5, 25 °C, average of at least two independent assays): > 200 µM; IC50 (NDM-1; read-out: NDM-1 IC50, 300 μM imipenem): 49.9 µM; IC50 (IMP-1; read-out: IMP-1 IC50, 300 μM imipenem, 10 mM HEPES pH 7.5, 25 °C, average of at least two independent assays): > 200 µM; potentiation efficiency (PE = MIC/IC50) [2]: 0.32
10 | N#Cc1cccc(CS(=O)(=O)Nc2scnc2C(=O)O)c1 [Compound 66] | 54.2 | 1 | 8.82 µM | 2.51 | 2 | 0.5 | – | –
11 | O=C(O)c1ncccc1NS(=O)(=O)c1ccccc1 [Compound 32] | > 200 | 2 | 49.9 µM | > 200 | 16 | 4 | 1.9 | inhibition of VIM-2, in words (VIM-2 [7]): strong inhibition
12 | Cc1ccc(C(=O)Nc2cccnc2C(=O)O)cc1Cl [Compound 17] | 95.7 | – | 8.46 µM and 8.5 µM | 87.6 | – | – | 93 | inhibition of VIM-1, in words (VIM-1): detectable inhibition; inhibition of NDM-1, in words (NDM-1): low micromolar inhibition; inhibition of VIM-2, in words (VIM-2 [7]): detectable inhibition; inhibition of IMP-1, in words (IMP-1): detectable inhibition
13 | O=C(O)c1ncccc1NS(=O)(=O)Cc1cccc(C(F)(F)F)c1 [Compound 40] | – | 1 | – | – | 16 | 2 | – | IC50 (VIM-1; [12]): 71.6 µM; IC50 (NDM-1; [13]): 17.9 µM; IC50 (IMP-1; [14]): > 200 µM
14 | O=C(O)c1ncsc1NS(=O)(=O)Cc1cc(Cl)cc(Cl)c1 [Compound 74] | 28 | 1 | 6.9 µM | 3.2 | 2 | 0.5 | – | –
15 | O=C(O)c1ncsc1NS(=O)(=O)Cc1ccccc1 [Compound 64] | 62.7 | 0.5 | 2.53 µM | 1.83 | 0.5 | 0.5 | – | –
16 | O=C(O)c1ccccn1 [Compound 1, pyridine-2-carboxylic acid, reference compound] | > 200 | – | 17.1 µM | > 200 | – | – | > 200 | inhibition of VIM-1, in words (VIM-1): no significant activity; Ki [8]: 6 µM; reduction of imipenem MIC [9]: no reduction; inhibition of IMP-1, in words (IMP-1): no significant activity
17 | O=C(O)c1ncccc1NS(=O)(=O)Cc1cc(Cl)cc(Cl)c1 [Compound 43] | 57.2 | 1 | 18.6 µM | 180 | 8 | 1 | 0.3 | inhibition of VIM-2, in words (VIM-2 [7]): strong inhibition
18 | O=C(O)c1ncccc1NS(=O)(=O)Cc1ccc(Cl)cc1Cl [Compound 41] | – | 1 | – | – | 16 | 1 | – | IC50 (VIM-1; [12]): 17.5 µM; IC50 (NDM-1; [13]): 80.6 µM; IC50 (IMP-1; [14]): 74.3 µM
19 | O=C(Nc1cccnc1C(=O)O)c1cocn1 [Compound 18] | > 200 | – | > 200 µM | > 200 | – | – | > 200 | inhibition of VIM-1, in words (VIM-1): inactive; inhibition of NDM-1, in words (NDM-1): inactive; inhibition of VIM-2, in words (VIM-2 [7]): inactive; inhibition of IMP-1, in words (IMP-1): inactive
